Data: patent US10555987B2, “GHRH agonists for the treatment of ischemic disorders” (UNIVERSITY OF MIAMI, priority 2012, dated 2020)
Marks after values point to notes of the source that are not given here. Non-standard residues stand in square brackets, D forms with d. Residues, ends and D or L forms follow the SMILES beside them. *: point of attachment. Desaminotyrosyl = O=C(CCc1ccc(O)cc1)*; NMeY = CN[C@@H](Cc1ccc(O)cc1)C(=O)O; Nle = CCCC[C@H](N)C(=O)O; Orn = NCCC[C@H](N)C(=O)O; Abu = CC[C@H](N)C(=O)O; Aoc = NCCCCCCCC(=O)O

Tests used:
GH release [1] = experiment: In vivo endocrine activity, GH release after intravenous administration (Table 8); settings: rat, i.v. injection
Procedure: In vivo tests on endocrine activity of new GHRH agonists (Intravenous administration). For in vivo tests based on intravenous administration, adult male Sprague-Dawley rats were anesthetized with pentobarbital (6 mg/100/g, b.w.), and GHRH agonists were injected 20 minutes after the injection of pentobarbital. Blood samples were taken from the jugular vein (pretreated level), immediately after hGHRH(1-29)NH2 injection (as a control) or after hGHRH analogs injection. Blood samples were taken from the jugular vein 5, 15 and 30 minutes after the injection. The blood samples were centrifuged, plasma was removed and the GH level was measured by ELISA.

GHRH receptor [2] = target: T1, GHRH receptor (Homo sapiens, UniProt Q02643); experiment: GHRH receptor binding, competition with 125I-labeled JV-1-42, human pituitary membrane homogenates (Table 7); design: Normal human pituitaries were purchased from the National Hormone and Peptide Program; tissue National Hormone and Peptide Program (A.F. Parlow, Harbor-UCLA Medical Center, Torrance, Calif.); host or cells: normal human pituitary, membrane fraction; settings: JI-38 = 1, Table 7
T1 sequence (Q02643 23-423): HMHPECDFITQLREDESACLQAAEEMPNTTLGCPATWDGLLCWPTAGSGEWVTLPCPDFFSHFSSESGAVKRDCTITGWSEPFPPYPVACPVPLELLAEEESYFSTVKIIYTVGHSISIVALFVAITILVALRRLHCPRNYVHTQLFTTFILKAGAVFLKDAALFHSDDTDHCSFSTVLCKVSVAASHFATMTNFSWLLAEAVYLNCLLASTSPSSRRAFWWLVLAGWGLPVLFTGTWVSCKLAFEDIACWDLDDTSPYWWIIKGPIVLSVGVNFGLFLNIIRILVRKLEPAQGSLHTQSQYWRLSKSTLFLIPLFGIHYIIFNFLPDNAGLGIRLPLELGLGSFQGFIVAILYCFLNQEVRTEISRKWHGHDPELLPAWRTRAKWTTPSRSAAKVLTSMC
Excerpt: Normal human pituitaries were purchased from the National Hormone and Peptide Program (A.F. Parlow, Los Angeles, County Harbor-UCLA Medical Center, Torrance, Calif.).

GHRH receptor [3] = target: T1, GHRH receptor; experiment: Receptor binding in vitro, 125I-labeled [His1,Nle27]-hGHRH(1-32)NH2, membrane receptors of human anterior pituitary cells (Table 14)
Excerpt: Normal human pituitary was purchased from the National Hormone and Peptide Program (UCLA Medical Center, Torrance, Calif.).

GH release [4] = experiment: GH releasing potency in vivo, subcutaneous administration (Example 14, Table 12); design: species or system rat; settings: s.c.
Procedure, shortened: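 Potency is expressed relative to GHRH(1-29)NH2 and JI-38 (each = 1), via equivalent GHRH(1-29)NH2 dose read from a standard curve. Peptides in 5% mannitol given i.v. or s.c. to anaesthetised male Sprague-Dawley rats (200-250 g); serum GH measured by ELISA at selected times.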

GH release [5] = experiment: In vivo endocrine activity, GH release after subcutaneous administration (Table 9); settings: rat, subcutaneous (s.c.) injection
Procedure: Subcutaneous Administration. Adult male rats were used and anesthetized with pentobarbital (6 mg/100 g, b.w.), by i.p. injection. […] Blood samples were taken from the jugular vein 5, 15 and/or 30 minutes after the injection. The blood samples were centrifuged, plasma was removed and the GH level was measured byELISA. The results are summarized in terms of potency in Table 9.

| Compound | GH releasing potency in vivo relative to JI-38 (=1) (GH release [1]; 5 min after) | GH releasing potency in vivo relative to JI-38 (=1) (GH release [1]; 15 min after) | GH releasing potency in vivo relative to JI-38 (=1) (GH release [1]; 30 min after) | Relative affinity (Binding potency) vs JI-38 (GHRH receptor [2]) | Relative affinity (Binding potency) compared to JI-38 (GHRH receptor [3]; JI-38 = 1) | Relative affinity (Binding potency) compared to hGHRH(1-29) (GHRH receptor [3]; hGHRH(1-29)NH2 = 1) | Serum GH level at selected time after injection (ng/ml), 0 min (GH release [4]; male rats, dose 3 μg/kg, 0 min, mean ± SEM) [ng/mL] | Serum GH level at selected time after injection (ng/ml), 15 min (GH release [4]; male rats, dose 3 μg/kg, 15 min, mean ± SEM) [ng/mL] | Serum GH level at selected time after injection (ng/ml), 30 min (GH release [4]; male rats, dose 3 μg/kg, 30 min, mean ± SEM) [ng/mL] | GH-releasing potency after s.c. administration (in words) (GH release [4]) | Relative potency compared to GHRH(1-29), 15 min (GH release [4]; 15 min) | Relative potency compared to JI-38, 15 min (GH release [4]; 15 min) | Relative potency compared to GHRH(1-29), 30 min (GH release [4]; 30 min) | GH releasing potency relative to JI-38 (=1) (GH release [5]; 15 min after) | GH releasing potency relative to JI-38 (=1) (GH release [5]; 30 min after) |
| --- | --- | --- | --- | --- | --- | --- | --- | --- | --- | --- | --- | --- | --- | --- | --- |
| CCCC[C@H](NC(=O)[C@@H](NC(=O)[C@H](CC(=O)O)NC(=O)[C@H](CCC(N)=O)NC(=O)[C@H](CC(C)C)NC(=O)[C@H](CC(C)C)NC(=O)[C@H](CCCN)NC(=O)[C@H](CCCNC(=N)N)NC(=O)[C@H](C)NC(=O)[C@H](CO)NC(=O)[C@H](CC(C)C)NC(=O)[C@H](CCC(N)=O)NC(=O)[C@H](CC)NC(=O)[C@H](CC(C)C)NC(=O)[C@@H](NC(=O)[C@H](CCCN)NC(=O)[C@H](CCCNC(=N)N)NC(=O)[C@H](Cc1ccc(O)cc1)NC(=O)[C@H](CO)NC(=O)[C@H](CC(N)=O)NC(=O)[C@@H](NC(=O)[C@H](Cc1ccccc1)NC(=O)[C@@H](NC(=O)[C@H](C)NC(=O)[C@H](CC(=O)O)NC(=O)[C@@H](C)NC(=O)CCc1ccc(O)cc1)[C@@H](C)CC)[C@@H](C)O)C(C)C)[C@@H](C)CC)C(=O)N[C@@H](CC(=O)O)C(=O)N[C@@H](CCCNC(=N)N)C(=O)NCCCCCCCC(N)=O [Peptide P-21300, [Dat^1, D-Ala^2, Orn^12, Abu^15, Orn^21, Nle^27, Asp^28, Amc^30]hGHRH(1-30)NH2] (Desaminotyrosyl-[dA]DAIFTNSYR[Orn]VL[Abu]QLSAR[Orn]LLQDI[Nle]DR[Aoc]-NH2) | 0.39 | 0.51 | 0.81 | 1.20 | – | – | – | – | – | – | – | – | – | – | – |
| CCCC[C@H](NC(=O)[C@@H](NC(=O)[C@H](CC(=O)O)NC(=O)[C@H](CCC(N)=O)NC(=O)[C@H](CC(C)C)NC(=O)[C@H](CC(C)C)NC(=O)[C@H](CCCN)NC(=O)[C@H](CCCNC(=N)N)NC(=O)[C@H](C)NC(=O)[C@H](CO)NC(=O)[C@H](CC(C)C)NC(=O)[C@H](CCC(N)=O)NC(=O)[C@H](CC)NC(=O)[C@H](CC(C)C)NC(=O)[C@@H](NC(=O)[C@H](CCCN)NC(=O)[C@H](CCCNC(=N)N)NC(=O)[C@H](Cc1ccc(O)cc1)NC(=O)[C@H](CO)NC(=O)[C@H](CCC(N)=O)NC(=O)[C@@H](NC(=O)[C@H](Cc1ccccc1)NC(=O)[C@@H](NC(=O)[C@H](C)NC(=O)[C@H](CC(=O)O)NC(=O)[C@H](C)NC(=O)[C@H](Cc1ccc(O)cc1)NC)[C@@H](C)CC)[C@@H](C)O)C(C)C)[C@@H](C)CC)C(=O)N[C@@H](CC(=O)O)C(=O)N[C@@H](CCCNC(=N)N)C(=O)NC [Peptide P-27406, [N—Me-Tyr^1, Gln^8, Orn^12, Abu^15, Orn^21, Nle^27, Asp^28]hGHRH(1-29) NH—CH3] (H-[NMeY]ADAIFTQSYR[Orn]VL[Abu]QLSAR[Orn]LLQDI[Nle]DR-NHMe) | – | – | – | 14.5 | 2.95 | 8.22 | 21.3 ± 4.8 | 492.6 ± 21.8 | 282 ± 17.8 | significantly higher potencies at 30 minutes than at 15 minutes | 170 | 2.69* | 449.7 | 0.47 | 0.50 |
| [N—Me-Tyr^1, D-Ala^2, Gln^8, Orn^12, Abu^15, Orn^21, Nle^27, Asp^28, Apa^30]hGHRH(1-30)NH—CH2—CH3 [Peptide P-28475] | 0.19 | 0.36 | 0.92 | – | – | – | – | – | – | – | – | – | – | – | – |
| [N—Me-Tyr^1, D-Ala^2, Gln^8, Orn^12, Abu^15, Orn^21, Nle^27, Asp^28, Har^30]hGHRH(1-30)NH—CH3 [Peptide P-27450] | 0.07 | 0.11 | 0.49 | – | – | – | – | – | – | – | – | – | – | – | – |
